# Laboratory results reported in patent publication US12180207B2 (ARRAY BIOPHARMA INC., priority 2018, dated 2024).
# pIC50: −log10 of the molar value.
# Target: HEK-293 cells transfected with dox-inducible human wild type FGFR3 (Homo sapiens (Human), UniProt P22607)
# Experiment: FGFR3 pFGFR cell assay (ELISA)
# Format: cell-based
# Conditions: HEK-293 dox-inducible FGFR3, 1 hour compound, 100 ng/ml FGF-acidic
# Method: FGFR3 pFGFR Cell Assay: • HEK-293 cells transfected with dox-inducible human wild type FGFR3 (SEQ ID NO: 5) were plated in a collagen or poly-D-lysine coated 96 well flat bottom plates at 4×10^5 cells/well in complete DMEM medium containing 10% FBS and 1 μg/ml doxycycline and allowed to attach for 24 h at 37° C., 5% CO2. Cells were treated with compound using 1:3 serial dilutions with a top final concentration of 5 μM. Compound was incubated on cells for 1 hour at 37° C., 5% CO2. Cells were then stimulated with a final concentration of 100 ng/ml human FGF-acidic for 5 minutes at 37° C., 5% CO2. Medium was removed and cells were lysed with lysis buffer containing phosphatase and protease inhibitors. Phospho FGFR3 was measured by ELISA (R&D Systems cat DYC2719). The ELISA captures total FGFR3 and detects total phospho tyrosine. Optical density was measured for each well using a Versamax reader at a wavelength of 450 nm. 100 POC was determined using no test compounds and 0 POC was determined using a control compound. The POC values were fit to a 4-parameter logistic curve as a function of the concentration of the compound, and the IC50 value is the point where the curve crosses 50 POC.
# Chain of HEK-293 cells transfected with dox-inducible human wild type FGFR3 (P22607 23-806): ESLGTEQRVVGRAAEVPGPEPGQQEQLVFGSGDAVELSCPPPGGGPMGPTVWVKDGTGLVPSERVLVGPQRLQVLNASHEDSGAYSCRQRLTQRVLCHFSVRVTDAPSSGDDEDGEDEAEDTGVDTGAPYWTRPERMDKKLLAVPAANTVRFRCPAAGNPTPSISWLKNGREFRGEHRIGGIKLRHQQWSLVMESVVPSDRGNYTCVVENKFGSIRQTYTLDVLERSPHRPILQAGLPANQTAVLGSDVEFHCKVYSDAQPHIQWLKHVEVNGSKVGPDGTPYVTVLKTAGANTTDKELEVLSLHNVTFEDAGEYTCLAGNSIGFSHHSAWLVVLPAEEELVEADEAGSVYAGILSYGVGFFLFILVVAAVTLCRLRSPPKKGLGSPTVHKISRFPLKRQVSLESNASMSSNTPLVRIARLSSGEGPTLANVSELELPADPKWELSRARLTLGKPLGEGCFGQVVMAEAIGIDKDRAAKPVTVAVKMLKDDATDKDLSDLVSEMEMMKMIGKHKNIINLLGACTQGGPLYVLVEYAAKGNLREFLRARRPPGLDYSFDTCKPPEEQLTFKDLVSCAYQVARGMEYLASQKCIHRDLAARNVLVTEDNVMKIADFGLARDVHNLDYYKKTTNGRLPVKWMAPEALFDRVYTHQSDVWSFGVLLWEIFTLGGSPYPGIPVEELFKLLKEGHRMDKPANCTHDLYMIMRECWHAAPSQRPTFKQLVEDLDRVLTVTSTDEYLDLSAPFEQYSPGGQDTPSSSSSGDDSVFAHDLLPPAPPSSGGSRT
row,pIC50,Structure (SMILES)
1,7.36,"C=CC(=O)N(C)c1ccc(C(=O)N2CCC(n3cc(-c4cc(OC)c5c(C#N)cnn5c4)cn3)CC2)cc1 [Example 178, N-(4-(4-(4-(3-cyano-4-methoxypyrazolo[1,5-a]pyridin-6-yl)-1H-pyrazol-1-yl)piperidine-1-carbonyl)phenyl)-N-methylacrylamide]"
2,7.77,"C#CC(=O)N1CC(C(=O)N2CCC(n3cc(-c4cc(OC)c5c(C#N)cnn5c4)cn3)CC2)C1 [Example 138, 4-methoxy-6-(1-(1-(1-propioloylazetidine-3-carbonyl)piperidin-4-yl)-1H-pyrazol-4-yl)pyrazolo[1,5-a]pyridine-3-carbonitrile]"
3,6.53,"C=CC(=O)N1CC(C(=O)N2CCC(n3cc(-c4cc(-c5ccc(NC(=O)C6CC6)cc5F)c5c(C#N)cnn5c4)cn3)CC2)C1 [Example 130, N-(4-(6-(1-(1-(1-acryloylazetidine-3-carbonyl)piperidin-4-yl)-1H-pyrazol-4-yl)-3-cyanopyrazolo[1,5-a]pyridin-4-yl)-3-fluorophenyl)cyclopropane-carboxamide]"
4,7.28,"COc1cc(-c2cnn(C3CCN(CC4CN(C(=O)/C=C/CN5CCCCC5)C4)CC3)c2)cn2ncc(C#N)c12 [Example 175, (E)-4-methoxy-6-(1-(1-((1-(4-(piperidin-1-yl)but-2-enoyl)azetidin-3-yl)methyl)piperidin-4-yl)-1H-pyrazol-4-yl)pyrazolo[1,5-a]pyridine-3-carbonitrile]"
5,7.92,"C=CC(=O)N1CC(S(=O)(=O)N2CCC(n3cc(-c4cc(OC)c5c(C#N)cnn5c4)cn3)CC2)C1 [Example 134, 6-(1-(1-((1-acryloylazetidin-3-yl)sulfonyl)piperidin-4-yl)-1H-pyrazol-4-yl)-4-methoxypyrazolo[1,5-a]pyridine-3-carbonitrile]"
6,6.86,COc1cc(-c2cnn(C3CCN(C(=O)C4CN(C(=O)/C=C/CN(C)C)C4)CC3)c2)cn2ncc(Cl)c12 [Example 174]
7,7.41,"C=CC(=O)N1CCC(F)(C(=O)N2CCC(n3cc(-c4cc(OC)c5c(C#N)cnn5c4)cn3)CC2)CC1 [Example 13, 6-(1-(1-(1-acryloyl-4-fluoropiperidine-4-carbonyl)piperidin-4-yl)-1H-pyrazol-4-yl)-4-methoxypyrazolo[1,5-a]pyridine-3-carbonitrile]"
8,6.28,"COc1cc(-c2cnn(C3CCN(C(=O)C4CN(C(=O)/C=C/CN(C)C)C4)CC3)c2)cn2ncc(C#N)c12 [Example 143, (E)-6-(1-(1-(1-(4-(dimethylamino)but-2-enoyl)azetidine-3-carbonyl)piperidin-4-yl)-1H-pyrazol-4-yl)-4-methoxypyrazolo [1,5-a]pyridine-3-carbonitrile]"
9,7.62,"C=CC(=O)N1CC(OC)(C(=O)N2CCC(n3cc(-c4cc(OC)c5c(Cl)cnn5c4)cn3)CC2)C1 [Example 124, 1-(3-(4-(4-(3-chloro-4-methoxypyrazolo[1,5-a]pyridin-6-yl)-1H-pyrazol-1-yl)piperidine-1-carbonyl)-3-methoxyazetidin-1-yl)prop-2-en-1-one]"
10,7.70,"C=CC(=O)N1CC(C(=O)N2CCC(n3cc(-c4cc(OCC)c5c(C#N)cnn5c4)cn3)CC2)C1 [Example 126, 6-(1-(1-(1-acryloylazetidine-3-carbonyl)piperidin-4-yl)-1H-pyrazol-4-yl)-4-ethoxypyrazolo[1,5-a]pyridine-3-carbonitrile]"
11,7.16,"C=CC(=O)N1CC(C(=O)N2CCC(c3ccc(-c4cc(OC)c5c(C#N)cnn5c4)cc3)CC2)C1 [Example 101, 6-(4-(1-(1-acryloylazetidine-3-carbonyl)piperidin-4-yl)phenyl)-4-methoxypyrazolo[1,5-a]pyridine-3-carbonitrile]"
12,7.10,"COc1cc(-c2cnn(C3CCN(CC4CN(C(=O)/C=C/CN(C)C)C4)CC3)c2)cn2ncc(C#N)c12 [Example 146, (E)-6-(1-(1-((1-(4-(dimethylamino)but-2-enoyl)azetidin-3-yl)methyl)piperidin-4-yl)-1H-pyrazol-4-yl)-4-methoxypyrazolo [1,5-a]pyridine-3-carbonitrile]"
13,6.83,"C=CC(=O)N1CC2(CCN(C(=O)N3CCC(n4cc(-c5cc(OC)c6c(C#N)cnn6c5)cn4)CC3)C2)C1 [Example 8, 6-(1-(1-(2-acryloyl-2,6-diazaspiro[3.4]octane-6-carbonyl)piperidin-4-yl)-1H-pyrazol-4-yl)-4-methoxypyrazolo[1,5-a]pyridine-3-carbonitrile]"
14,7.51,"C=CC(=O)N1CC(CN2CCC(n3cc(-c4cc(OC)c5c(C#N)cnn5c4)cn3)CC2)C1 [Example 132, 6-(1-(1-((1-acryloylazetidin-3-yl)methyl)piperidin-4-yl)-1H-pyrazol-4-yl)-4-methoxypyrazolo[1,5-a]pyridine-3-carbonitrile]"
15,6.59,"COc1cc(-c2cnn(C3CCN(C(=O)C4CN(C(=O)/C=C/CN5CCCCC5)C4)CC3)c2)cn2ncc(C#N)c12 [Example 145, (E)-4-methoxy-6-(1-(1-(1-(4-(piperidin-1-yl)but-2-enoyl)azetidine-3-carbonyl)piperidin-4-yl)-1H-pyrazol-4-yl)pyrazolo[1,5-a]pyridine-3-carbonitrile]"
16,7.64,"C=CC(=O)N1CC(C(=O)N2CCC(n3cc(-c4cc(C(C)C)c5c(C#N)cnn5c4)cn3)CC2)C1 [Example 129, 6-(1-(1-(1-acryloylazetidine-3-carbonyl)piperidin-4-yl)-1H-pyrazol-4-yl)-4-isopropylpyrazolo[1,5-a]pyridine-3-carbonitrile]"
17,7.15,"C=CC(=O)N1CC(C(=O)N2CCC(n3cc(-c4cc(OC)c5c(Cl)cnn5c4)cn3)CC2)C1 [Example 122, 1-(3-(4-(4-(3-chloro-4-methoxypyrazolo[1,5-a]pyridin-6-yl)-1H-pyrazol-1-yl)piperidine-1-carbonyl)azetidin-1-yl)prop-2-en-1-one]"
18,7.74,"C=CC(=O)N1CC(C(=O)N2CCC(n3cc(-c4cc(OC(C)C)c5c(C#N)cnn5c4)cn3)CC2)C1 [Example 127, 6-(1-(1-(1-acryloylazetidine-3-carbonyl)piperidin-4-yl)-1H-pyrazol-4-yl)-4-isopropoxypyrazolo[1,5-a]pyridine-3-carbonitrile]"
19,7.68,"C=CC(=O)N1CC(C(=O)N2CCN(c3ccc(-c4cc(OC)c5c(C#N)cnn5c4)cc3)CC2)C1 [Example 100, 6-(4-(4-(1-acryloylazetidine-3-carbonyl)piperazin-1-yl)phenyl)-4-methoxypyrazolo[1,5-a]pyridine-3-carbonitrile]"
20,6.96,"C=CC(=O)N1C[C@H]2CN(C(=O)N3CCC(n4cc(-c5cc(OC)c6c(C#N)cnn6c5)cn4)CC3)C[C@H]21 [Example 7, 6-(1-(1-((1S,5S)-6-acryloyl-3,6-diazabicyclo[3.2.0]heptane-3-carbonyl)piperidin-4-yl)-1H-pyrazol-4-yl)-4-methoxypyrazolo[1,5-a]pyridine-3-carbonitrile]"
21,5.95,"C=CC(=O)N1CC(C(=O)N2CCC(n3cnc(-c4cc(OC)c5c(C#N)cnn5c4)c3)CC2)C1 [Example 98, 6-(1-(1-(1-acryloylazetidine-3-carbonyl)piperidin-4-yl)-1H-imidazol-4-yl)-4-methoxypyrazolo[1,5-a]pyridine-3-carbonitrile]"

row,Structure (SMILES),pIC50
1,"C=CC(=O)N1CC(C(=O)N2CCC(n3cc(-c4cc(OCC(C)C)c5c(C#N)cnn5c4)cn3)CC2)C1 [Example 128, 6-(1-(1-(1-acryloylazetidine-3-carbonyl)piperidin-4-yl)-1H-pyrazol-4-yl)-4-isobutoxypyrazolo[1,5-a]pyridine-3-carbonitrile]",7.55
